Values quoted from earlier work in patent US20240318128A1, “BIOFUNGICIDE PRODUCTION BY CONIOCHAETA AND APPLICATION IN CONTROL OF EARLY BLIGHT OF POTATO” (The United States of America, as represented by the …, priority 2023, published 2024).

Tested on: yeast and bacteria
Conditions: Segeth et al. 2003

Q: Which spectrum of inhibition does the source give for coniocetin here?
A: inhibits
